Assay results reported in patent US5358951A, “Angiotensin II receptor blocking 2, 3, 6 substituted quinazolinones” (American Cyanamid Company, priority 1993, dated 1994).

Tested on: vasopressor response of angiotensin II
Assay: AII Challenge: antagonism of angiotensin II vasopressor response;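 as to Response Average Change: post-dose Angiotensin II-evoked rise in systolic blood pressure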
Assay type: in vivo
Settings: for inhibition in vivo at 1 mg/kg / inhibition in vivo at 3 mg/kg: Rattus norvegicus; for inhibition in vivo at 1 mg/kg: iv; for inhibition in vivo at 3 mg/kg: po
In short: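 Conscious male SHR (16-20 weeks) with aortic and caval cannulae received angiotensin II at 0.05 and 0.1 ug/kg i.v. before and 30-300 min after compound dosing (i.v., i.p. or oral). Blockade is expressed as % of each rat's predose rise in systolic pressure.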

SMILES: CCCCc1nc2ccc(C3(C(=O)OC)CC4CCCN4O3)cc2c(=O)n1Cc1ccc(-c2ccccc2-c2nnn[nH]2)cc1 (mixture of isomers) [Example 78, Trans(+/-)-Methyl-2-[2-butyl-3,4-dihydro-4-oxo-3-[[2'-(1H-tetrazol-5-yl)[1,1'-biphenyl]-4-yl]methyl-6-quinazolinyl]hexahydropyrrolo[1,2-b]isoxazole-2-carboxylate]
- Response Average Change (1 mg/kg i.v., AII 0.05 mcg/kg IV, 30 min post dose): 5 mmHg
- Response Average Change (1 mg/kg i.v., AII 0.05 mcg/kg IV, 60 min post dose): 12.5 mmHg
- Response Average Change (1 mg/kg i.v., AII 0.05 mcg/kg IV, 90 min post dose): 7.5 mmHg
- Response Average Change (1 mg/kg i.v., AII 0.05 mcg/kg IV, 120 min post dose): 10 mmHg
- Response Average Change (1 mg/kg i.v., AII 0.05 mcg/kg IV, 180 min post dose): 11 mmHg
- Response Average Change (1 mg/kg i.v., AII 0.05 mcg/kg IV, 240 min post dose): 12.5 mmHg
- Response Average Change (1 mg/kg i.v., AII 0.05 mcg/kg IV, 300 min post dose): 5 mmHg
- Response Average Change (1 mg/kg i.v., AII 0.1 mcg/kg IV, 30 min post dose): 15 mmHg
- Response Average Change (1 mg/kg i.v., AII 0.1 mcg/kg IV, 60 min post dose): 12.5 mmHg
- Response Average Change (1 mg/kg i.v., AII 0.1 mcg/kg IV, 90 min post dose): 15 mmHg
- Response Average Change (1 mg/kg i.v., AII 0.1 mcg/kg IV, 120 min post dose): 17.5 mmHg
- Response Average Change (1 mg/kg i.v., AII 0.1 mcg/kg IV, 180 min post dose): 12.5 mmHg
- Response Average Change (1 mg/kg i.v., AII 0.1 mcg/kg IV, 240 min post dose): 12.5 mmHg
- Response Average Change (1 mg/kg i.v., AII 0.1 mcg/kg IV, 300 min post dose): 17.5 mmHg
- Response Average Change (3 mg/kg P.O., AII 0.05 mcg/kg IV, 30 min post dose): 27.5 mmHg
- Response Average Change (3 mg/kg P.O., AII 0.05 mcg/kg IV, 60 min post dose): 22.5 mmHg
- Response Average Change (3 mg/kg P.O., AII 0.05 mcg/kg IV, 90 min post dose): 22.5 mmHg
- Response Average Change (3 mg/kg P.O., AII 0.05 mcg/kg IV, 120 min post dose): 17.5 mmHg
- Response Average Change (3 mg/kg P.O., AII 0.05 mcg/kg IV, 180 min post dose): 19 mmHg
- Response Average Change (3 mg/kg P.O., AII 0.05 mcg/kg IV, 240 min post dose): 19 mmHg
- Response Average Change (3 mg/kg P.O., AII 0.05 mcg/kg IV, 300 min post dose): 27.5 mmHg
- Response Average Change (3 mg/kg P.O., AII 0.1 mcg/kg IV, 30 min post dose): 35 mmHg
- Response Average Change (3 mg/kg P.O., AII 0.1 mcg/kg IV, 60 min post dose): 25 mmHg
- Response Average Change (3 mg/kg P.O., AII 0.1 mcg/kg IV, 90 min post dose): 17.5 mmHg
- Response Average Change (3 mg/kg P.O., AII 0.1 mcg/kg IV, 120 min post dose): 15 mmHg
- Response Average Change (3 mg/kg P.O., AII 0.1 mcg/kg IV, 180 min post dose): 17.5 mmHg
- Response Average Change (3 mg/kg P.O., AII 0.1 mcg/kg IV, 240 min post dose): 17.5 mmHg
- Response Average Change (3 mg/kg P.O., AII 0.1 mcg/kg IV, 300 min post dose): 25 mmHg
- inhibition in vivo at 1 mg/kg (0.5 h, 1 mg/kg i.v., AII 0.05 mcg/kg IV, 30 min post dose): 80%
- inhibition in vivo at 1 mg/kg (0.5 h, 1 mg/kg i.v., AII 0.1 mcg/kg IV, 30 min post dose): 45%
- inhibition in vivo at 1 mg/kg (1 h, 1 mg/kg i.v., AII 0.05 mcg/kg IV, 60 min post dose): 50%
- inhibition in vivo at 1 mg/kg (1 h, 1 mg/kg i.v., AII 0.1 mcg/kg IV, 60 min post dose): 55%
- inhibition in vivo at 1 mg/kg (2 h, 1 mg/kg i.v., AII 0.05 mcg/kg IV, 120 min post dose): 60%
- inhibition in vivo at 1 mg/kg (2 h, 1 mg/kg i.v., AII 0.1 mcg/kg IV, 120 min post dose): 36%
- inhibition in vivo at 1 mg/kg (3 h, 1 mg/kg i.v., AII 0.05 mcg/kg IV, 180 min post dose): 56%
- inhibition in vivo at 1 mg/kg (3 h, 1 mg/kg i.v., AII 0.1 mcg/kg IV, 180 min post dose): 55%
- inhibition in vivo at 1 mg/kg (4 h, 1 mg/kg i.v., AII 0.05 mcg/kg IV, 240 min post dose): 50%
- inhibition in vivo at 1 mg/kg (4 h, 1 mg/kg i.v., AII 0.1 mcg/kg IV, 240 min post dose): 55%
- inhibition in vivo at 1 mg/kg (5 h, 1 mg/kg i.v., AII 0.05 mcg/kg IV, 300 min post dose): 80%
- inhibition in vivo at 1 mg/kg (5 h, 1 mg/kg i.v., AII 0.1 mcg/kg IV, 300 min post dose): 36%
- inhibition in vivo at 1 mg/kg ([…], 1 mg/kg i.v., AII 0.05 mcg/kg IV, 90 min post dose): 70%
- inhibition in vivo at 1 mg/kg ([…], 1 mg/kg i.v., AII 0.1 mcg/kg IV, 90 min post dose): 45%
- inhibition in vivo at 3 mg/kg (0.5 h, 3 mg/kg P.O., AII 0.05 mcg/kg IV, 30 min post dose): 0%
- inhibition in vivo at 3 mg/kg (0.5 h, 3 mg/kg P.O., AII 0.1 mcg/kg IV, 30 min post dose): -17%
- inhibition in vivo at 3 mg/kg (1 h, 3 mg/kg P.O., AII 0.05 mcg/kg IV, 60 min post dose): 18%
- inhibition in vivo at 3 mg/kg (1 h, 3 mg/kg P.O., AII 0.1 mcg/kg IV, 60 min post dose): 17%
- inhibition in vivo at 3 mg/kg (2 h, 3 mg/kg P.O., AII 0.05 mcg/kg IV, 120 min post dose): 36%
- inhibition in vivo at 3 mg/kg (2 h, 3 mg/kg P.O., AII 0.1 mcg/kg IV, 120 min post dose): 50%
- inhibition in vivo at 3 mg/kg (3 h, 3 mg/kg P.O., AII 0.05 mcg/kg IV, 180 min post dose): 31%
- inhibition in vivo at 3 mg/kg (3 h, 3 mg/kg P.O., AII 0.1 mcg/kg IV, 180 min post dose): 42%
- inhibition in vivo at 3 mg/kg (4 h, 3 mg/kg P.O., AII 0.05 mcg/kg IV, 240 min post dose): 31%
- inhibition in vivo at 3 mg/kg (4 h, 3 mg/kg P.O., AII 0.1 mcg/kg IV, 240 min post dose): 42%
- inhibition in vivo at 3 mg/kg (5 h, 3 mg/kg P.O., AII 0.05 mcg/kg IV, 300 min post dose): 0%
- inhibition in vivo at 3 mg/kg (5 h, 3 mg/kg P.O., AII 0.1 mcg/kg IV, 300 min post dose): 17%
- inhibition in vivo at 3 mg/kg ([…], 3 mg/kg P.O., AII 0.05 mcg/kg IV, 90 min post dose): 18%
- inhibition in vivo at 3 mg/kg ([…], 3 mg/kg P.O., AII 0.1 mcg/kg IV, 90 min post dose): 42%
